{"source": "ChEMBL document CHEMBL4765389", "about": "“Antimicrobial and anti-inflammatory activities of short dodecapeptides derived from duck cathelicidin: Plausible mechanism of bactericidal action and endotoxin neutralization” (Eur J Med Chem, 2020)", "tested_on": "Lipopolysaccharide (LPS)", "assay": "Displacement of BODIPY-TR cadaverine from Escherichia coli O111:B4 LPS measured for 100 sec by spectrofluorometry"}
{"substance": "H-LWKKIYRKWKRW-NH2", "values": [{"measurement": "Activity", "result": "Dose-dependent effect"}]}
